Assays:
[1] = test system: dopaminergic neuronal cells (N27); test: MTT cytotoxicity assay in N27 cells; format: cell-based; details: Rattus norvegicus, 48 h
[2] = test system: normal human dermal fibroblasts (NHDF); test: MTT cytotoxicity assay in NHDF cells; format: cell-based; details: 48 h
[3] = test system: Liver MBCOMT; details: cited from earlier work
[4] = target: T1, human recombinant MBCOMT (Homo sapiens, UniProt P21964); test: In-vitro MBCOMT enzymatic inhibition assay (metanephrine from epinephrine, HPLC)
T1 sequence (P21964 1-271): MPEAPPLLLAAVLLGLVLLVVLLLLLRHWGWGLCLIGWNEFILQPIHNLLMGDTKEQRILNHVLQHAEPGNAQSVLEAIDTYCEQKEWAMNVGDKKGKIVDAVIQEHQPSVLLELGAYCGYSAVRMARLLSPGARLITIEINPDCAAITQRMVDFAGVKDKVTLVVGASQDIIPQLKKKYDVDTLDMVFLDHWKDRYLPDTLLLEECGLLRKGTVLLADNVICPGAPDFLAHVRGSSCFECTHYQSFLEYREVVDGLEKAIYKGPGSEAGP

[5] = IC50 (nM), Recombinant MBCOMT, this work, means with 95% confidence (n = 2 to 3)
[6] = IC50, Recombinant MBCOMT, bound stated

| Compound | inhibition at 10 µM [4] [%] | inhibition at 100 µM [4] [%] | IC50 [4, 5] [nM] | IC50 [4, 6] [nM] | IC50 [1] [µM] | IC50 ([2]; Homo sapiens) [µM] | IC50 [3] [µM] | IC50 [2] [µM] | IC50 ([2]; Homo sapiens, NHDF) [µM] |
| --- | --- | --- | --- | --- | --- | --- | --- | --- | --- |
| O=c1[nH]cc(F)c(=O)[nH]1 [Compound 5-FU, 5-fluorouracil, reference compound] |  |  |  |  | 4.28 | 5.16 |  |  |  |
| Cc1ccc(C(=O)c2cc(O)c(O)c([N+](=O)[O-])c2)cc1 [Tolcapone] |  |  |  |  |  |  | 0.123 |  |  |
| Cc1[nH]nc(-c2ccc(O)c(O)c2O)c1Oc1ccccc1 [ZINC302226] | 56 | 100 | 1080 |  | 52.5 | > 100 |  |  |  |
| N#Cc1cc(O)c(O)c([N+](=O)[O-])c1 [ZINC27985035] |  |  |  |  | 61.3 |  |  | 40.3 | 40.3 |
| CC(C)Cn1c(-c2cc(-c3ccc(O)c(O)c3O)nc3c2c(O)nn3C(C)C)nc2ccccc21 [ZINC95473053] | 41 | 46 |  |  |  |  |  |  |  |
| C[C@@]1(C(=O)O)CC[C@]2(C)CC[C@]3(C)C4=CC(=O)c5c(cc(O)c(O)c5C=O)[C@@]4(C)CC[C@@]3(C)[C@@H]2C1 [ZINC605706834] | 39 | 34 |  |  |  |  |  |  |  |

The next lines start with results.

| inhibition at 10 µM [4] [%] | inhibition at 100 µM [4] [%] | IC50 [4, 5] [nM] | IC50 [4, 6] [nM] | Compound | IC50 [1] [µM] | IC50 ([2]; Homo sapiens) [µM] | IC50 [3] [µM] | IC50 [2] [µM] | IC50 ([2]; Homo sapiens, NHDF) [µM] |
| --- | --- | --- | --- | --- | --- | --- | --- | --- | --- |
| 100 | 100 | 944 | < 1000 | C/C(=N\Cc1ccccc1)c1ccc(O)c(O)c1O [ZINC98288] | 69.8 | > 100 |  |  |  |
| 100 | 100 |  |  | COC(=O)c1cc(O)c(O)c([N+](=O)[O-])c1 [ZINC38175059] |  |  |  |  |  |
| 40 | 43 |  |  | Cc1cc(=O)oc2c(O)c(O)c(C(=O)O)cc12 [ZINC68675288] |  |  |  |  |  |
| 81 | 100 | 470 | < 1000 | O=Cc1cc([N+](=O)[O-])c(O)c(O)c1Br [ZINC78496496] | > 100 | 92.9 |  |  |  |
| 72 | 100 | 1540 |  | Cc1ccc(/N=C/c2c(O)c(O)cc3ccccc23)cc1 [ZINC825166420] | 17 | 12.1 |  |  |  |
| 14 | 27 |  |  | COc1ccc(-c2nc(-c3cccc(O)c3O)[nH]c2-c2oc(C)cc(=O)c2O)cc1 [ZINC1547205762] |  |  |  |  |  |

— article PMC8780549, “Discovery of Small Molecules as Membrane-Bound Catechol-O-methyltransferase Inhibitors with Interest in Parkinson’s Disease: Pharmacophore Modeling, Molecular Docking and In Vitro Experimental Validation Studies” (Pharmaceuticals, 2021)
